These results are taken from patent publication US8618046B2, “Treatment of atherosclerosis with cholesterol ester transport protein mimotopes” (Affiris AG, priority 2007, dated 2013).

Where no end group is shown, it is not given here.

Assay [1] deals with monoclonal antibody “Frida”. Briefly: In vitro inhibition (competition) ELISA with mAb Frida on coated original CETP epitope. It is filed as binding, mouse. Conditions: for inhibition ELISA signal, 2 μg peptide / inhibition ELISA signal, 20 μg peptide / inhibition ELISA signal, high / inhibition ELISA signal, low: 2.5 ng mAb Frida; for inhibition ELISA signal, 2 μg peptide / inhibition ELISA signal, 20 μg peptide: coat 1 μM peptide; for inhibition ELISA signal, 2 μg peptide / inhibition ELISA signal, 20 μg peptide / inhibition ELISA signal, high / inhibition ELISA signal, low / inhibition ELISA signal, first value column / inhibition ELISA signal, second value column: detection αIgG1; for inhibition ELISA signal, high: high peptide amount; for inhibition ELISA signal, low: low peptide amount; for inhibition in in vitro competition ELISA, mAb “Frida” (in words): monoclonal antibodies “Frida” and, where stated, “James”; for inhibition ELISA signal, first value column / inhibition ELISA signal, second value column: FIG. 18b, column without head. As for the experimental part: Different amounts of peptides (2 and 20 μg, as indicated in the respective figures) derived from Phage Display were incubated with the monoclonal antibody that was used for the screening procedure. Peptides diminishing subsequent binding of the antibody to the original CETP epitope (C-terminal 16 amino acids of CETP protein) coated on ELISA plates were considered as inhibiting. (Results see i.a. FIGS. 19a to 19c)

For the next assay, the system named is original epitope (p4073). Description: Titer to the original CETP epitope in sera of immunised animals (peptide ELISA). It is filed as in vivo, mouse. Conditions: for antibody response to the original CETP epitope (in words): coupled to KLH, mice and rabbits. Here is the method: (§1) Balb/c mice/30 μg Peptide, 2 injections in 2 week intervals. S3=2 weeks after 3rd injection. Alum as adjuvant. Titers against original epitope (p4073) induced by injection of mimotopes. Well coating: 50 μl of 1 μM p4073-BSA or 1 μg/ml activated KLH. Detection: αIgG:
Inhibiting as well as some non-inhibiting peptides were coupled to KLH and injected into mice (wildtype or CETP-transgenic mice; subcutaneously into the flank or intra-dermaly into the ears) or rabbits (subcutaneously into the flank) together with an appropriate adjuvant (aluminium hydroxide and Gerbu 100 for mice and aluminium hydroxide or CFA/IFA for rabbits).
Titers to injected peptides as well as to the original CETP epitope were determined. In addition, for selected sera also immune response to CETP protein was measured (Results see FIGS. 7a to 7d and FIGS. 19a to 19e).
(§2) Subcutaneous injections in the flank were performed in week 1, week 3 and week 7 with 30 μg peptide-KLH per mouse. Intradermal injections in the ear were performed in week 1, week 3 and week 6 with 10 μg peptide-KLH per mouse. Sera were taken 2 weeks after the 3rd injection. Vaccine formulation with Alum (always 1 mg per mouse): up to 250 μl, injected into one flank. The Alum formulation with 1 ml per mouse (500 μl into each flank) was in 1×PBS as buffer.
Vaccine formulation with Gerbu Adjuvant 100 (Gerbu Cat. Nr. #3100; always 50 μl adjuvant per mouse): 200 μl, 100 μl injected into each flank comprising 1×HEPES as buffer. […]
(In general: In an ELISA, binding on a coated surface is turned into a signal by an enzyme label.)

The next assay concerns irrelevant peptide-BSA. Briefly: Titer to irrelevant peptide in sera of immunised animals (peptide ELISA). It is filed as in vivo, mouse. Conditions: Table 1, mice, sera 2 weeks after 3rd injection. Here is the method:
as §1, §2
Vaccine formulation with Gerbu Adjuvant 100 (Gerbu Cat. Nr. #3100; always 50 μl adjuvant per mouse): 200 μl, 100 μl injected into each flank comprising 1×HEPES as buffer.
Female Balb/c mice, five mice per group, were subcutaneously immunized with 30 μg peptide coupled to KLH. Control groups were administered KLH or C-[…] (SEQ ID NO. 147). As adjuvant alum was used. […] The in vitro ELISA assay to determine the antibody titer was performed with pooled sera after two vaccinations in a two week interval (S2; see FIGS. 7a to 7d). The wells of the ELISA plate were coated with KLH (positive control), mimotope-BSA conjugate, C-[…] (SEQ ID NO. 147) and a irrelevant peptide-BSA conjugate (negative control). The detection was performed with anti-mouse IgG.

Where [2] appears, read: FIG. 18a, coat 1 μM 4073 peptide.

Take “C-FGFPEHLLVDFLQSLS [p4073, reference compound]”: the “inhibition ELISA signal, 2 μg peptide” value stood at 0.44 in assay [1] (FIG. 10a) and 0.64 in assay [1] (FIG. 10b). The figures for the “inhibition ELISA signal, 20 μg peptide” value in assay [1] (FIG. 10a) and in assay [1] (FIG. 10b) were 0.1 and 0.15, respectively. Besides, the “inhibition ELISA signal, high” value in assay [1] (setting [2]) was determined as 0.094; in assay [1] (FIG. 18c, coat 1 μM 4073) it was 0.088. For the same substance, the “inhibition ELISA signal, low” value in assay [1] (setting [2]) is listed as 0.537; in assay [1] (FIG. 18c, coat 1 μM 4073), 0.554. Also, the “inhibition in in vitro competition ELISA, mAb “Frida” (in words)” value (“inhibition in in vitro competition ELISA” for short) in assay [1] is reported as “inhibiting in vitro”.

For the substance “C-FGFPEHVFIDWLQSLS (N-terminal cysteine; CETP mimotope) [p4477]”, in assay [1] (setting [2]), the “inhibition ELISA signal, high” value worked out at 0.116 and the “inhibition ELISA signal, low” value is listed as 0.808.

As for “C-FGFPQHLFTDWLQSLS (N-terminal cysteine; CETP mimotope) [p4481]”, in assay [1] (setting [2]), the “inhibition ELISA signal, high” value is 0.156 and the “inhibition ELISA signal, low” value is reported as 0.551.

As for “C-FGFPSHIIIDWLQSLS (N-terminal Cys; CETP mimotope) [p4432]”, in assay [1] (FIG. 18c, coat 1 μM 4073), the “inhibition ELISA signal, high” value was 0.096 and the “inhibition ELISA signal, low” value was 0.635.

As for “C-FGFPSHLIIDWLQSLS (N-terminal Cys; CETP mimotope) [p4325]”, in assay [1] (FIG. 10b), the “inhibition ELISA signal, 2 μg peptide” value is on record as 0.42 and the “inhibition ELISA signal, 20 μg peptide” value amounted to 0.1.

As to “C-FGFPSHLIIEWLQSLS (N-terminal Cys; CETP mimotope) [p4433]”, in assay [1] (FIG. 18c, coat 1 μM 4073), the “inhibition ELISA signal, high” value turned out to be 0.672 and the “inhibition ELISA signal, low” value was 1.114.

Turning to “C-FKPAHVFIDWLQSLS (N-terminal cysteine; CETP mimotope) [p4478]”, in assay [1] (setting [2]), the “inhibition ELISA signal, high” value worked out at 1.206 and the “inhibition ELISA signal, low” value amounted to 2.231.

In the case of “C-FPEHLLVDFLQSL (N-terminal Cys) [reference compound]”, the “inhibition in in vitro competition ELISA” value in assay [1] was “not inhibiting in vitro”.

Regarding “C-FPEHLLVDFLQSLS (N-terminal Cys) [reference compound]”, in assay [1], the “inhibition in in vitro competition ELISA” value is “inhibiting in vitro”.

For “C-GFKPAHVFIDWLQSLS (N-terminal cysteine; CETP mimotope) [p4479]”, in assay [1] (setting [2]), the “inhibition ELISA signal, high” value was found to be 1.591 and the “inhibition ELISA signal, low” value came to 2.165.

With “C-GFPEHLLVDFLQSLS (N-terminal Cys) [reference compound]”, in assay [1], the “inhibition in in vitro competition ELISA” value is given as “inhibiting in vitro”.

“C-PAHVFIDWLQ (N-terminal cysteine; CETP mimotope) [p4820]”: in assay [1] (coat 1 μM 4073 peptide), the “inhibition ELISA signal, first value column” value came to 2.310 and the “inhibition ELISA signal, second value column” value turned out to be 2.374.

For the substance “C-PAHVYIDWLQSLS (N-terminal cysteine; CETP mimotope) [p4629]”, in assay [1] (coat 1 μM 4073 peptide), the “inhibition ELISA signal, first value column” value stood at 0.313 and the “inhibition ELISA signal, second value column” value was 0.118.

“C-PEHLLVDFLQSLS (N-terminal Cys) [reference compound]”: the “inhibition in in vitro competition ELISA” value in assay [1] is recorded as “evtl. slightly inhibiting in vitro”.

“C-PSHLIIDWLQ (N-terminal cysteine; CETP mimotope) [p4819]”: in assay [1] (coat 1 μM 4073 peptide), the “inhibition ELISA signal, first value column” value stood at 2.226 and the “inhibition ELISA signal, second value column” value was determined as 2.158.

On to “C-RMFPESFLDTLW (N-terminal Cys; CETP mimotope) [P12-21]”, for which, in the assay with original epitope (p4073), the “antibody response to the original CETP epitope (in words)” value (shortened to “antibody response”) is “induced an immune response to the original CETP epitope in wt mice and in rabbits”.

Turning to “C-SANPRDFLETLF (N-terminal Cys; CETP mimotope) [P12-19]”, the “antibody response” value in the assay with original epitope (p4073) was “induced an immune response to the original CETP epitope in wt mice and in rabbits”.

As for “C-TIYDSFLDSLAS (N-terminal Cys; CETP mimotope) [P12-37]”, the “antibody response” value in the assay with original epitope (p4073) is “did not induce an antibody response to the original epitope”.

On to FGFPAHVFIDWLQSLN-C [p5068], for which, in assay [1] (coat 1 μM 4073 peptide), the “inhibition ELISA signal, first value column” value turned out to be 0.757 and the “inhibition ELISA signal, second value column” value was 0.271.

As to “FGFPAHVYIDWLQSLS-C (C-terminal cysteine; CETP mimotope) [p5067]”, in assay [1] (coat 1 μM 4073 peptide), the “inhibition ELISA signal, first value column” value stood at 0.563 and the “inhibition ELISA signal, second value column” value is given as 0.217.

Take “FGFPEHLLVDFLQSLS-C (C-terminal Cys; CETP mimotope) [p1208, positive control peptide, reference compound]”: in assay [1] (setting [2]), the “inhibition ELISA signal, high” value amounted to 0.093 and the “inhibition ELISA signal, low” value is listed as 0.712. In addition, in assay [1] (coat 1 μM 4073 peptide), the “inhibition ELISA signal, first value column” value is on record as 0.264 and the “inhibition ELISA signal, second value column” value was determined as 0.079. Besides, in assay [1] (FIG. 18c, coat 1 μM 4073), the “inhibition ELISA signal, high” value was 0.101 and the “inhibition ELISA signal, low” value was determined as 0.942.

Turning to “p4181-KLH: F3-6 C-NFLKTLS coupled to KLH (CNFLKTLS; also: coupled to KLH)”, the “titer, p irrelevant” value in the assay with irrelevant peptide-BSA (Alum s.c. (30 μg peptide)) and in the assay on irrelevant peptide-BSA (KLH/Alum i.d. (10 μg peptide)) was “no titer” throughout.

As to “p4184-KLH: F3-18 C-DFLRTLT coupled to KLH (CDFLRTLT; also: coupled to KLH)”, in the assay on irrelevant peptide-BSA (KLH/Alum i.d. (10 μg peptide)), the “titer, p irrelevant” value is recorded as “no titer”.

Regarding “p4187-KLH: F3-34 C-TFLSSLA coupled to KLH (CTFLSSLA; also: coupled to KLH)”, the “titer, p irrelevant” value in the assay on irrelevant peptide-BSA (Alum s.c. (30 μg peptide)) and in the assay on irrelevant peptide-BSA (KLH/Gerbu s.c. (30 μg peptide)) was “no titer” in each case.

Take “p4188-KLH: F3-38 C-GFLDSLM coupled to KLH (CGFLDSLM; also: coupled to KLH)”: the “titer, p irrelevant” value in the assay with irrelevant peptide-BSA (Alum s.c. (30 μg peptide)) and in the assay with irrelevant peptide-BSA (KLH/Alum i.d. (10 μg peptide)) was “no titer” each time.

With “p4223-KLH: F2-9; C-SFLDTLT coupled to KLH (CSFLDTLT; also: coupled to KLH)”, the “titer, p irrelevant” value in the assay with irrelevant peptide-BSA (Alum s.c. (30 μg peptide)) is “no titer”.

On to “p4227-KLH: P12-19; C-SANPRDFLETLF coupled to KLH (CSANPRDFLETLF; also: coupled to KLH)”, for which, in the assay on original epitope (p4073) (Table 1, KLH/Alum i.d. (10 μg peptide), mice, sera 2 weeks after 3rd injection), the “titer, P4073 (FGFPEHLLVDFLQSLS)” value is on record as “no titer”. The “titer, p irrelevant” value in the assay on irrelevant peptide-BSA (Alum s.c. (30 μg peptide)) and in the assay with irrelevant peptide-BSA (KLH/Alum i.d. (10 μg peptide)) was “no titer” throughout.

Consider “p4228-KLH: P12-21; C-RMFPESFLDTLW coupled to KLH (CRMFPESFLDTLW; also: coupled to KLH)”, for which the “titer, p irrelevant” value with irrelevant peptide-BSA (KLH/Alum i.d. (10 μg peptide)) and in the assay on irrelevant peptide-BSA (KLH/Gerbu s.c. (30 μg peptide)) was “no titer” each time.
